Measured values published in patent US5380921A, “Aminophosponic acid derivative” (Banyu Pharmaceutical Co., Ltd., priority 1993, dated 1995).
Entries after “also recorded” stand apart in the source; their conditions may differ. Each block holds one compound with its values, some of them ahead of it.

How the values were obtained:
[1] = tested on: Isolated Pig Coronary Arteries; assay: Effect on endothelin-1-induced increase in tension in isolated pig coronary arteries; conditions: 0.3 nM endothelin-1
Method: Pig coronary arteries were isolated, and a spiral preparation having a width of 1 mm and a length of 10 mm was prepared therefrom. These samples were then placed in a 5 ml Magnus' tube filled with Krebs-Henseleit solution saturated with a gas mixture of 95% O2 and 5% CO2, and a change in the tension was isometrically measured and recorded. […]

[2] = target: T1, endothelin-converting enzyme (ECE) (Bos taurus, UniProt P42891); assay: ECE Activity Inhibition Test (endothelin-1 produced from big endothelin-1, RIA); type: biochemical; conditions: 10 μM test compound; 1 μM big endothelin-1; pH 7.2, 37° C., 90 minutes
T1 construct: ECE was prepared according to the method already published by Yano, et.al; endogenous in cells
T1 sequence (P42891 1-754): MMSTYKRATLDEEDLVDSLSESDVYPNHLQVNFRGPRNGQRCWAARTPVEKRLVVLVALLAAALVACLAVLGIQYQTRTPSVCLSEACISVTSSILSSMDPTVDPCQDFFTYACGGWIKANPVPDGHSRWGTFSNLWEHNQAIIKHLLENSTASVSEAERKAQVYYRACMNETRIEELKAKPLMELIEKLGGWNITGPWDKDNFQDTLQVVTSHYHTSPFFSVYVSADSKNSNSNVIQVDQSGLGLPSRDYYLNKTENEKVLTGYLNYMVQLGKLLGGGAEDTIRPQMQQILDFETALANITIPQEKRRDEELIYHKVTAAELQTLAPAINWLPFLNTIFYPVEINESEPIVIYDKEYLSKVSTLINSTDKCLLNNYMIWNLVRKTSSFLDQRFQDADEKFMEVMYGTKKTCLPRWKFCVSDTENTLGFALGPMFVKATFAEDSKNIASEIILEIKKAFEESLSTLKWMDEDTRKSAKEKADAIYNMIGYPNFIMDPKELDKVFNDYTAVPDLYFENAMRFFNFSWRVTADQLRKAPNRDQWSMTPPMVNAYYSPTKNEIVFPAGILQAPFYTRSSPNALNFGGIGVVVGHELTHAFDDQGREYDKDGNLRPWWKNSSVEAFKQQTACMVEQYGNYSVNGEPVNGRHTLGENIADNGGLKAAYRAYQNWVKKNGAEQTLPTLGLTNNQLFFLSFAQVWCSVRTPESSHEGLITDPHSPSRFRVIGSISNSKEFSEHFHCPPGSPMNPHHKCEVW
Method: ECE was prepared according to the method already published by Yano, et.al. (Biochem. Biophys. Res. Commun., Vol. 171, p.1192-1198, 1990), and 11 μg of ECE and 1 μM of big endothelin-1 were reacted with a 0.5M Tris-HCl buffer solution (pH 7.2) at 37° C. for 90 minutes in the presence or absence of a test compound, after which the amount of endothelin-1 produced thereby was determined by the RIA method, and the ECE inhibition activity of the test compound was evaluated.

[3] = tested on: Isolated Pig Coronary Arteries; assay: Effect on Big Endothelin-1-induced Contraction in Isolated Pig Coronary Arteries
Method: Pig coronary arteries were isolated, and a spiral preparation having a width of 1 mm and a length of 10 mm was prepared therefrom. These samples were then placed in a 5 ml Magnus' tube filled with Krebs-Henseleit solution saturated with a gas mixture of 95% O2 and 5% CO2, and a change in the tension was isometrically measured and recorded.
The influence of a representative compound of the present invention (Compound of Example 11) to the increase in the tension produced by 30 nM of big endothelin-1 was examined. The test compound was added to the Magnus' tube 40 minutes prior to the addition of big endothelin-1.
A 100% increase in the tension was defined as that in the case of no addition of the test compound (control) at 2 hours after addition of big endothelin-1, and the comparison with the increase in the tension in the cases where the test compound was added is shown in Table 2.

[4] = tested on: Isolated Guinea Pig Bronchial Smooth Muscles; assay: Effect on Big Endothelin-1-induced Contraction in Isolated Guinea Pig Bronchial Smooth Muscles
Method: Bronchia (outer diameter approximately 2 mm) were isolated from the lung of a guinea pig, and the connective tissue, lung parenchymal tissue, etc. were peeled off, and then a ring preparation (4 mm in length) was prepared. These samples were placed in a 5 ml Magnus' tube filled with Krebs-Henseleit solution saturated with a gas mixture of 95% O2 and 5% CO2, and a change in tension was isometrically measured and recorded.
The influence of a representative compound of the present invention (Compound of Example 2, Isomer B) to the increase in the tension produced by 100 nM of big endothelin-1 was examined. The test compound was added into the Magnus' tube 40 minutes prior to the addition of big endothelin-1.
A 100% increase in the tension was defined as that in the case of no addition of the test compound (control) at 2 hours after addition of big endothelin-1, and the comparison with the increase in the tension in the cases where the test compound was added is shown in Table 3.

Guinea Pigs = assay: Effect on Big Endothelin-1-induced Increase in Airway Resistance in Guinea Pigs; type: in vivo, guinea pig
Method: Guinea pigs were first anesthetized with urethane, and then the necks were subjected to median incision, a tracheal cannula was inserted in the trachea. Spontaneous respiration was interrupted with succinylcholine (5 mg/kg, hypodermic injection), and then an artificial respirator was used to effect artificial ventilation (10 ml/air/kg, […]). The airway pressure was then measured and recorded using the Konzett and Rossler method (Arch. Exp. Path. Pharmacol., Vol. 135, p.71-74, 1940), via an airway contraction transducer from the tracheal cannula.
Examined was the influence of a representative compound of the present invention (Compound of Example 1, Isomer B) to the increase in airway pressure produced by the administration of 5 nmol/kg of big endothelin-1 through a polyethylene tube inserted into the common carotid vein. The test compound was injected into the common carotid vein 5 minutes before the administration of big endothelin-1. Also, upon completion of the experiment, the change in airway pressure obtained by blockage of the trachea was defined as a 100% increase in airway pressure, and the measured increases in airway pressure were expressed as percentages of this value. […]

Compound: CC(C)C[C@H](NC(CCc1ccccc1)P(=O)(O)O)C(=O)N[C@@H](Cc1c[nH]c2ccccc12)C(=O)O (single isomer, unassigned) [Example 1 (Isomer B), N-[N-(3-phenyl-1-phosphonopropyl)-L-leucyl]-L-tryptophan]
increase in airway pressure induced by big endothelin-1 (Guinea Pigs; 0.3, 1.0 and 3.0 mg/kg into common carotid vein, 5 minutes before 5 nmol/kg big endothelin-1, FIG. 1): remarkably inhibits the increase in the airway pressure; also recorded: suppressed the increase in airway pressure induced by big endothelin-1, in a dose-dependent manner
change in airway pressure on administration of the test compound alone (Guinea Pigs; test compound alone): no change in the airway pressure

Compound: O=C(O)[C@H](Cc1c[nH]c2ccccc12)NC(=O)[C@H](Cc1ccccc1)NC(CCc1ccccc1)P(=O)(O)O (single isomer, unassigned) [Example 10 (Isomer B), N-[N-(3-phenyl-1-phosphonopropyl)-L-phenylalanil]-L-tryptophan]
inhibition at 10 µM [2]: 76%

Compound: CC(C)C[C@H](NP(=O)(O)O[C@@H]1O[C@@H](C)[C@H](O)[C@@H](O)[C@H]1O)C(=O)N[C@@H](Cc1c[nH]c2ccccc12)C(=O)O [Phosphoramidon, reference compound]
inhibition at 10 µM [2]: 64%

Further lines, with some results ahead:

inhibition at 10 µM [2]: 84%
IC50 ([3]; Sus scrofa, 30 nM big endothelin-1, pig coronary arteries, calculated, read-out: IC50 value, inhibition of big endothelin-1-induced contraction): 16 µM
Compound: CC(C)C[C@H](NC(CCc1ccccc1)P(=O)(O)O)C(=O)N[C@@H](Cc1c[nH]c2ccccc12)C(=O)O (stereo partly drawn) [Example 11, N-[N-(3-phenyl-1-phosphonopropyl)-L-leucyl]-L-tryptophan]
effect on the increase in the tension caused by endothelin-1 [1]: no effect
inhibition of big endothelin-1-induced contraction (in words) ([3]; 30 nM big endothelin-1, 10-100 μM): dose-dependent inhibition
activity at 10 µM ([3]; Sus scrofa, 10 μM, 30 nM big endothelin-1, at 2 hours, read-out: Contraction (% of control)): 59.9%
activity at 30 µM ([3]; Sus scrofa, 30 μM, 30 nM big endothelin-1, at 2 hours, read-out: Contraction (% of control)): 35.3%
activity at 100 µM ([3]; Sus scrofa, 100 μM, 30 nM big endothelin-1, at 2 hours, read-out: Contraction (% of control)): 2.7%
effect of the compound itself on the tension of blood vessel samples ([3]; compound alone): no effect

inhibition at 10 µM [2]: 80%
Compound: CC(C)C[C@H](NC(CCc1c[nH]c2ccccc12)P(=O)(O)O)C(=O)N[C@@H](Cc1c[nH]c2ccccc12)C(=O)O (stereo partly drawn) [Example 6, N-[N-[3-(3-indolyl)-1-phosphonopropyl]-L-leucyl]-L-tryptophan]

IC50 ([4]; Cavia porcellus, 100 nM big endothelin-1, guinea pig bronchia, calculated, read-out: IC50 value, inhibition of big endothelin-1-induced contraction): 16 µM
Compound: CC(C)C[C@H](NC(CCc1cccc2ccccc12)P(=O)(O)O)C(=O)N[C@@H](Cc1c[nH]c2ccccc12)C(=O)O (single isomer, unassigned) [Example 2 (Isomer B), N-{N-[3-(1-naphthyl)-1-phosphonopropyl]-L-leucyl}-L-tryptophan]
inhibition of big endothelin-1-induced contraction (in words) ([4]; 100 nM big endothelin-1, 1-100 μm (so in the source)): dose-dependent inhibition
activity at 1 µM ([4]; Cavia porcellus, 1 μm (so in the source), 100 nM big endothelin-1, at 2 hours, read-out: Contraction (% of control)): 105%
activity at 10 µM ([4]; Cavia porcellus, 10 μm (so in the source), 100 nM big endothelin-1, at 2 hours, read-out: Contraction (% of control)): 54.9%
activity at 100 µM ([4]; Cavia porcellus, 100 μm (so in the source), 100 nM big endothelin-1, at 2 hours, read-out: Contraction (% of control)): 32.9%
effect of the test compound itself on the tension of bronchial samples ([4]; compound alone): no effect
